Measurements reported in patent US11767296B2, “Heteroaryl compounds as kinase inhibitor” (FUJIAN HAIXI PHARMACEUTICALS CO., LTD, priority 2018, dated 2023).

Legend:
CSF-1R = target: T1, CSF-1R (Homo sapiens, UniProt P07333); assay: CSF-1R kinase assay (HTRF kinEASE TK); type: biochemical; conditions: ATP 2.5 uM, enzyme 0.012 ng/ul, read-out: In vitro inhibitory activity of CSF-1R IC50
T1 construct: purchased Invitrogen PV3249
Description: Example 53: CSF-1R Kinase Assay
I. Materials and Instruments
• 2104 EnVision® Multilabel Reader (PerkinElmer) • OptiPlate-384, White Opaque 384-well MicroPlate (Cat.6007290, PerkinElmer) • HTRF kinEASE TK (Cat.62TKOPEC, Cisbio) • CSF-1R(Cat. PV3249, Invitrogen) • ATP 10 mM (Cat. PV3227, Invitrogen) • DTT 1 M (Cat. D5545, Sigma) • MgCl2 1 M (Cat. M8266, Sigma) • MnCl2 1 M (Cat.244589. Sigma)
II. Experimental Procedure
Substrate-TK and ATP were diluted to 5 times of the reaction concentration by 1×Kinase Buffer. CSF1R enzyme was diluted to 5×enzyme solution by 1×kinase buffer. Sa-XL665 was diluted to 4×Sa-XL665 solution by Detection Buffer. 100×TK-Ab-Cryptate Solution TK-Ab-Cryptate was diluted to 100×TK-Ab-Cryptate solution by Detection Buffer. 2. Experimental Procedure After all reagents had been prepared according to the above method, except enzymes, the sample was added after equilibrium to room temperature. • a. Firstly, 2.5% DMSO solution was prepared by using 1×kinase buffer (the high concentration of DMSO will affect the reaction and control the final concentration of DMSO to 1%). Then the compounds were diluted by 2.5% DMSO solution corresponding to the enzyme. The screening concentration of the compounds was 4 times gradient dilution from 1000 nM, and 8 concentrations. In addition to the control pore, 4 microlitres of diluted solution containing 2.5% DMSO were added to the reaction pore and 4 microlitres of previously prepared solution containing 2.5% DMSO were added to the control pore. • b. 2 microlitres of previously prepared TK-biotin substrate solution was added to all reaction pore (the amount of substrate used for enzyme screening is shown in Table 15). • c. Adding 2 microlitres of CSF1R enzyme solution of corresponding concentration (the amount of enzyme is shown in Table 15) to all reaction pore except negative pore. The negative pore is supplemented with 2 microlitres of enzyme corresponding to 1 xkinase buffer. After mixing, the compound and enzyme can be fully combined by incubating at room temperature for 10 minutes. • d. Enzyme reaction was initiated by adding 2 microlitres ATP solution of corresponding concentration to all reaction pore. The reaction time was 30 minutes (the corresponding ATP concentration and reaction time at enzyme screening were shown in Table 15). • e. Preparing the test solution 5 minutes before the end of kinase reaction. Streptavidin-XL665 and TK antibody europium cryptate (1:100) were prepared with detection buffer in the kit (the corresponding concentration of detection reagent for enzyme screening is shown in Table 15). • f. After the kinase reaction, 5 microlitres of diluted Streptavidin-XL665 were added to all reaction pore, mixing, and then the diluted TK antibody europium cryptate solution was added immediately. • g. After 1 hour reaction at room temperature, the fluorescence signals (320 nm stimulation, 665 nm, 615 nm emission) were detected by ENVISION (Perkinelmer) instrument. The inhibition rate of each pore was calculated by full active pore and background signal pore, and the average value of complex pore was obtained. Meanwhile, the half inhibitory activity (IC50) of each compound was fitted by professional drawing analysis software PRISM 5.0. The Flow Chart of the Experiment is as Follows:
3. Data Analysis Emission Ratio (ER)=665 nm Emission signal/615 nm Emission signal Inhibitory rate=(ERpositive−ERsample)/(ERpositive−ERnegative)*100% Using Graphpad Prism 5 and log (inhibitor) vs. normalized response to fit IC50 curve and calculate IC50 value. The IC50 data of the compounds prepared in Representative Examples 3-52 are as follows (Table 18): […]

NFS-60 cells = assay: NFS-60 cell assay (CCK proliferation, M-CSF stimulated); type: cell-based; conditions: Mus musculus, compound 0.5 uM, 72 h, 40 ng/mL M-CSF, read-out: inhibition ratio % (NFS-60 cell proliferation)
Description: Example 54: NFS-60 Cell Assay
1. Experimental Materials
Mouse Myelogenous Leukemia Cells (NFS-60)
Using DMSO to dissolve, and the required concentration was prepared with full culture medium without factors.
Penicillin-streptomycin: TRANS
Mouse M-CSF/CSF-1 Protein: Sino Biological Inc, No. 51112-MNAH
M-CSF: Qilu Pharmaceutical co., Ltd.
The logarithmic growth phase of NFS-60 cells (1640+10% FBS+40 ng/ml M-CSF+1% Penicillin-streptomycin) were centrifuged (1000 r/min) and cultured in a factor-free medium at 37° C., 5% CO2 for 24 hours. Centrifugating (1000 r/min), the culture medium was replaced by new culture medium including 40 ng/mL factors, and inoculated on 96-well plate by 2*10^4 cells/mL, 100 μL/hole. After 16 hours, the tested compounds were added 10 μL/hole, 3 duplicate holes per compound, 37° C., 5% CO2, continue to cultured for 72 h. Then 10 μL CCK reagent was added to each hole. After incubation for 4 hours, the absorbance of each hole was measured at 450 nm wavelength. According to Formula: Inhibitory rate (%)=(1-OD value of test pore/OD value of solvent control pore)×100% 3. Experimental Results The experimental results of the inhibition of NFS-60 cell proliferation by the compounds prepared in Example 3-52, 0.5 uM, are shown in the following table: […]

[1] = tested on: MC-38 transplanted tumors; assay: Animal pharmacodynamics experiment: MC-38 transplanted tumors in C57 mice; type: in vivo; conditions: 2 weeks; for inhibition in vivo at 30 mg/kg: Mus musculus, MC-38, po, 336 h, compound alone, 30 mg/kg intragastrically daily, read-out: inhibition ratio (tumor size, MC-38 transplanted tumors); for inhibition ratio (tumor size, MC-38 transplanted tumors): compound 30 mg/kg intragastrically daily + anti-PD1 10 mg/kg i.p. once every 3 days
Description: Example 55: Animal Pharmacodynamics Experiment
In this study. MC-38 cell lines were inoculated in C57 mice
Experimental animal: C57 mice, male, 5-6 weeks old (18-22 g)
Inoculation: 2×10^6/0.1 mL, Matrigel is added in 3:1 ratio
PD1: InVivoMAb anti-mouse PD-1 (CD279). BioXCell
Group: On day 4 after inoculating, all the mice were divided into 13 groups, respectively model group, the anti-PD1 2 mg/kg group, anti-PD110 mg/kg group, testing compounds alone, and the tested compound combine with anti-PD1 10 mg/kg. Compounds were intragastrically administered daily at a dose of 30 mg/kg and anti-PD1 was intraperitoneally injected once every 3 days. The drug was administered continuously for 2 weeks. In model group, 80% glycerol+20% CMC-Na was given daily.
Results: The experimental results of anti-PD1 combined with the compounds prepared in the representative example 3-52 on the inhibition of tumor size of MC-38 transplanted tumors are as follows: […]

T1 sequence (P07333 20-972): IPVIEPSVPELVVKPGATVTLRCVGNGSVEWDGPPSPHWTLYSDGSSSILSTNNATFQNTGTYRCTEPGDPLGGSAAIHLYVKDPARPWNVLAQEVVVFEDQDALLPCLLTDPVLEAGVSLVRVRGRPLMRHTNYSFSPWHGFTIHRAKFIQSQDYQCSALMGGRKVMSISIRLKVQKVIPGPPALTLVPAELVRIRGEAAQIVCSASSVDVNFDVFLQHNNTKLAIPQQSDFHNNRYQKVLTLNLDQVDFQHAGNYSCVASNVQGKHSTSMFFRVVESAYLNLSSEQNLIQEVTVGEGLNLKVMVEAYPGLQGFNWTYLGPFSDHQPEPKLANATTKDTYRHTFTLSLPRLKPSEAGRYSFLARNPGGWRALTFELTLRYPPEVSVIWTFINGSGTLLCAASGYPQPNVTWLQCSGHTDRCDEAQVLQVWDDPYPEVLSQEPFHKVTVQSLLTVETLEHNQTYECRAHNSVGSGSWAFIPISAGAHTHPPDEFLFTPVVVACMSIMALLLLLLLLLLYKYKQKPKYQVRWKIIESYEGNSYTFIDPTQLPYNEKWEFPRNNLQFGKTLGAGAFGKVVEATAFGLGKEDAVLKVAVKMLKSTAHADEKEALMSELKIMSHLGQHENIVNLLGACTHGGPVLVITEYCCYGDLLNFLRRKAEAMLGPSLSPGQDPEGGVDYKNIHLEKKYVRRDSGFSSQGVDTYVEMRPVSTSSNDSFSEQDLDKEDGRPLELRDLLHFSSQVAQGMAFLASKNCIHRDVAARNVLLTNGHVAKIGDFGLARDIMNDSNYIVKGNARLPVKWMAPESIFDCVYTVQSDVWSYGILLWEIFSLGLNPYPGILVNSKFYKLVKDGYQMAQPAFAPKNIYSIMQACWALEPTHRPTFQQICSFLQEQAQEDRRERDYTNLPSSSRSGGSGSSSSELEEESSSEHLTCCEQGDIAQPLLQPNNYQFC

Row | SMILES | IC50 (CSF-1R) | inhibition at 0.5 µM (NFS-60 cells) | inhibition in vivo at 30 mg/kg [1] | inhibition ratio (tumor size, MC-38 transplanted tumors) [1]
1 | C[C@@H](Oc1cc(-c2cccnc2)cnc1N)c1cccc(NC(=O)c2cccc(C3CC3)c2)c1 [Compound 200, (R)-N-(3-(1-((6-amino-[3,3′-bipyridin]-5-yl)oxy)ethyl)phenyl)-3-cyclopropylbenzamide] | – | ≥ 50% | – | –
2 | Cc1cccc(C(=O)Nc2cccc([C@H](C)Oc3cc(Cl)cnc3N)c2)c1 [Compound 54, (S)-N-(3-(1-((2-amino-5-chloropyridin-3-yl)oxy)ethyl)-phenyl)-3-methylbenzamide] | ≤ 50 nM | 10 to 50% | – | –
3 | C[C@@H](Oc1cc(-c2cnn(C)c2)cnc1N)c1cccc(NC(=O)c2cccc(C(F)(F)F)c2)c1 [Compound 169, (R)-N-(3-(1-((2-amino-5-(1-methyl-1H-pyrazol-4-yl)pyridin-3-yl)oxy)ethyl)phenyl)-3-(trifluoromethyl)benzamide] | – | ≥ 50% | – | –
4 | C[C@@H](Oc1cc(-c2cnn(C)c2)cnc1N)c1cccc(NC(=O)c2cccc(S(C)(=O)=O)c2)c1 [Compound 168, (R)-N-(3-(1-((2-amino-5-(1-methyl-1H-pyrazol-4-yl)pyridin-3-yl)oxy)ethyl)phenyl)-3-(methylsulfonyl)benzamide] | – | ≥ 50% | – | –
5 | Cc1ccc(C(=O)Nc2cccc([C@@H](C)Oc3cc(Cl)cnc3N)c2)cc1S(C)(=O)=O [Compound 126, (R)-N-(3-(1-((2-amino-5-chloropyridin-3-yl)oxy)ethyl)-phenyl)-4-methyl-3-(methylsulfonyl)benzamide] | – | ≥ 50% | – | –
6 | C[C@@H](Oc1cc(-c2cccnc2)cnc1N)c1cccc(NC(=O)c2cccc(S(C)(=O)=O)c2)c1 [Compound 199, (R)-N-(3-(1-((6-amino-[3,3′-bipyridin]-5-yl)oxy)ethyl)phenyl)-3-(methylsulfonyl)benzamide] | – | ≥ 50% | – | –
7 | C[C@@H](Oc1cc(Cl)cnc1N)c1cccc(NC(=O)c2cc(C(F)(F)F)cc(S(C)(=O)=O)c2)c1 [Compound 150, (R)-N-(3-(1-((2-amino-5-chloropyridin-3-yl)oxy)ethyl)-phenyl)-3-(methylsulfonyl)-5-(trifluoromethyl)benzamide] | – | ≥ 50% | – | –
8 | Cc1cc(C)cc(C(=O)Nc2cccc([C@@H](C)Oc3cc(Cl)cnc3N)c2)c1 [Compound 137, (R)-N-(3-(1-((2-amino-5-chloropyridin-3-yl)oxy)ethyl)-phenyl)-3,5-dimethylbenzamide] | – | ≥ 50% | – | –

Continued, in another order:

Row | IC50 (CSF-1R) | SMILES | inhibition at 0.5 µM (NFS-60 cells) | inhibition in vivo at 30 mg/kg [1] | inhibition ratio (tumor size, MC-38 transplanted tumors) [1]
9 | ≤ 50 nM | CSc1ccc(C(=O)Nc2cccc([C@@H](C)Oc3cc(-c4cnn(C)c4)cnc3N)c2)cc1 [Compound 181, (R)-N-(3-(1-((2-amino-5-(1-methyl-1H-pyrazol-4-yl)pyridin-3-yl)oxy)ethyl)phenyl)-4-(methylthio)benzamide] | ≥ 50% | – | –
10 | ≤ 50 nM | C[C@@H](Oc1cc(Cl)cnc1N)c1cccc(NC(=O)c2cccc(S(C)(=O)=O)c2)c1 [Compound 78, (R)-N-(3-(1-((2-amino-5-chloropyridin-3-yl)oxy)ethyl)-phenyl)-3-(methylsulfonyl)-benzamide] | – | < 10% | ++ (++: 10%-30%)
11 | ≤ 50 nM | Cc1ccc(C(=O)Nc2cccc([C@@H](C)Oc3cc(Cl)cnc3N)c2)cc1C [Compound 132, (R)-N-(3-(1-((2-amino-5-chloropyridin-3-yl)oxy)ethyl)-phenyl)-3,4-dimethylbenzamide] | ≥ 50% | – | –
12 | ≤ 50 nM | C[C@@H](Oc1cc(-c2cnn(C)c2)cnc1N)c1cccc(NC(=O)c2cccc([S+](C)[O-])c2)c1 (stereo partly drawn) [Compound 367, N-(3-((R)-1-((2-amino-5-(1-methyl-1H-pyrazol-4-yl)pyridin-3-yl)oxy)ethyl)phenyl)-3-(methylsulfinyl)benzamide] | ≥ 50% | – | –
13 | ≤ 50 nM | Cc1cccc(C(=O)Nc2cccc([C@@H](C)Oc3cc(Cl)cnc3N)c2)c1Cl [Compound 85, (R)-N-(3-(1-((2-amino-5-chloropyridin-3-yl)oxy)ethyl)-phenyl)-2-chloro-3-methylbenzamide] | – | < 10% | +++ (+++: ≥30%)
14 | ≤ 50 nM | COc1cccc(C(=O)Nc2cccc([C@@H](C)Oc3cc(Cl)cnc3N)c2)c1 [Compound 74, (R)-N-(3-(1-((2-amino-5-chloropyridin-3-yl)oxy)ethyl)-phenyl)-3-methoxybenzamide] | ≥ 50% | – | –
15 | ≤ 50 nM | C[C@@H](Oc1cc(-c2cccnc2)cnc1N)c1cccc(NC(=O)c2cccc(N(C)C)c2)c1 [Compound 205, (R)-N-(3-(1-((6-amino-[3,3′-bipyridin]-5-yl)oxy)ethyl)phenyl)-3-(dimethylamino)benzamide] | ≥ 50% | – | –
16 | ≤ 50 nM | Cc1ccc(C(=O)Nc2cccc([C@@H](C)Oc3cc(-c4cccnc4)cnc3N)c2)cc1N(C)C [Compound 206, (R)-N-(3-(1-((6-amino-[3,3′-bipyridin]-5-yl)oxy)ethyl)phenyl)-3-(dimethylamino)-4-methylbenzamide] | ≥ 50% | – | –
17 | ≤ 50 nM | CSc1cccc(C(=O)Nc2cccc([C@@H](C)Oc3cc(-c4cnn(C)c4)cnc3N)c2)c1 [Compound 180, (R)-N-(3-(1-((2-amino-5-(1-methyl-1H-pyrazol-4-yl)pyridin-3-yl)oxy)ethyl)phenyl)-3-(methylthio)benzamide] | ≥ 50% | – | –
18 | ≤ 50 nM | C[C@@H](Oc1cc(Cl)cnc1N)c1cccc(NC(=O)c2ccc3c(c2)S(=O)(=O)CC3)c1 [Compound 134, (R)-N-(3-(1-((2-amino-5-chloropyridin-3-yl)oxy)ethyl)-phenyl)-2,3-dihydrobenzo[b]thiophene-6-carboxamide 1,1-dioxide] | ≥ 50% | – | –
